This note sets out measurements from PMC10979478, “Deciphering the Biosynthesis and Physiological Function of 5-Methylated Pyrazinones Produced by Myxobacteria” (ACS Central Science, 2024).

Residues, ends and D or L forms follow the SMILES beside them. *: point of attachment. Boc = CC(C)(C)OC(=O)*

One data set concerns SDU70-ΔcorA-corB. Nature of the data set: Agglutination assay of corB-overexpression mutant. In kind it is cell-based, Corallococcus exiguus. Particulars: for morphology on induction: 5 mg/L; for clumping: as high as 50 mg/L. As to the method: (§1) The agglutination assay basically followed the method described by Velicer.[62] Briefly, DK1622 strains were cultured in CTT medium, whereas SDU70 strains were cultured in VY/2 medium. The aggregation-inducing compounds were added together with the initial inocula. After 3 days of growth, ∼2 mL of liquid cultures (in logarithmic growth stage) were transferred into cuvettes. Samples were left static for 15 min to visualize the clumping phenomenon. To plot the agglutination curves, the absorbance readings (600 nm) were measured on a UV-8000 spectrophotometer at differential intervals within 4 h. Decreasing the absorbance represents the settling of agglutinated cell clumps. Data points are the means of three replicates per strain.

The next data set has as its system SDU70-corB. Briefly: Agglutination assay of corB-overexpression mutant. Particulars: as high as 50 mg/L. Type of data set: cell-based, Corallococcus exiguus. Here is the method: as §1
The next data set concerns SDU70-ΔcorA. Nature of the data set: Agglutination assay in liquid culture. Particulars: for dose dependence of flocculation/agglutination: 1~50 mg/L; for ability to induce agglutination (SAR): each compound added at 5 mg/L. Type of data set: cell-based, Corallococcus exiguus. Here is the method: as §1
Data set [1] concerns DK1622-wt. Nature of the data set: Agglutination assay in liquid culture. In kind it is cell-based, Myxococcus xanthus. Particulars: for dose dependence of flocculation/agglutination: 1~50 mg/L; for ability to induce agglutination (SAR): each compound added at 5 mg/L. As to the method:
as §1

Another data set concerns DK1622-corB. Briefly: Agglutination assay of corB-overexpression mutant. In kind it is cell-based, Myxococcus xanthus. Particulars: for agglutination induced by exogenous addition, in corB-overexpressing strain: 5 mg/L; for threshold concentration causing visible flocculation of DK1622-corB relative to DK1622-wt: 1 or 1b′ (Figures S12–S14). Here is the method: as §1
Data set [2] is described as follows: Cytotoxic activity on human cell lines. Type of data set: cell-based. Particulars: HepG2 hepatocarcinoma cells, mean value of three replicates.
Data set [3] is described as follows: Cytotoxic activity on human cell lines. Particulars: A549 lung carcinoma cells, mean value of three replicates. In kind it is cell-based.
A short description of data set [4]: Cytotoxic activity on human cell lines. Type of data set: cell-based. Particulars: PC3 prostatic carcinoma cells, mean value of three replicates.
Data set [5] can be described thus: Cytotoxic activity on human cell lines. Type of data set: cell-based. Particulars: KYSE410 esophageal squamous carcinoma cells, mean value of three replicates.
Data set [6] has as its system DK1622-wt. Briefly: Trypan blue binding assay of EPS production. In kind it is cell-based, Myxococcus xanthus. Particulars: DK1622-wt supplemented with 5 mg/L. As to the method: Exopolysaccharide (EPS) production was measured according to the method published by Black et al.[64] Briefly, wild type and mutant strains of DK1622 were inoculated in liquid CTT medium and incubated for 24 h at 30 °C and 200 rpm. The cells grown to the logarithmic phase were collected by centrifugation, and the supernatants were discarded. Cells were resuspended and adjusted to a density of 5 × 10^8 CFU/mL with TPM buffer (1.97 g/L MgSO4·7H2O, 1 M Tris-HCl, 10 mL 0.1 M PBS, pH 7.6). Next, the cell suspension was evenly mixed with an equal volume of Trypan Blue dye solution (150 μg/mL), and TPM buffer was used as a blank control. The supernatant was centrifuged at 12000 rpm for 5 min, and 200 μL was used for the absorbance measurement at 585 nm. Each experiment was performed in triplicate.

A further data set deals with DK1622. Briefly: Confocal laser scanning microscopy of cells and EPS. In kind it is cell-based, Myxococcus xanthus. Particulars: DK1622+1. Here is the method: The microscopic observation of SDU70 and DK1622 basically followed our recently published methods.[63]Scanning electron microscopy (SEM): DK1622 and SDU70 strains (wild type and mutants) were grown to logarithmic stage. The cells were washed three times with 1× PBS buffer and then fixed overnight at 4 °C in 2.5% glutaraldehyde solution. Samples were prepared using the standard ethanol dehydration method,[62] and observed by QUANTA FEG250 scanning electron microscope (Thermo Fisher Scientific, USA). Confocal laser scanning microscopy (CLSM): DK1622 strains were grown in CTT liquid medium for 24 h, while SDU70 strains were grown in VY/2 medium for 72 h. The presence of EPS, eDNA dead cells, and alive cells were labeled with Alexa 350-labeled wheat germ lectin (WGA), SYTOX Orange, and STYO 9, respectively. The images were taken on LSM 900 CLSM (Zeiss, Germany), using 63× oil immersed objective lens. The CLSM images were captured by ZEN software (Zeiss, Germany) and exported by using ImageJ software.

In a further data set the test system is four human cell lines. Briefly: Antiproliferative activity, summary statement. In kind it is cell-based. Particulars: four human cell lines (Table S2).
In the next data set the test system is CorB. Briefly: MST assay of CorB to coralinone A. In kind it is binding, Corallococcus exiguus SDU70. Particulars: 15.2 μM to 0.5 mM test compound. As to the method:
(§2) The white needle crystals of 2 were obtained from MeOH solvent by slowly volatilizing in a glass vial under ambient condition. The X-ray diffraction measurement of crystals basically followed our previously published method.1 The crystallographic data for 2 was summarized […]6, and deposited in CCDC database under the access number 2278050. Antibacterial Assay. The antibacterial assay was performed by agar diffusion method.2 Single colony of Gram-positive bacteria Staphylococcus aureus, Gram-negative bacterium Acinetobacter baumannii, and fungus Candida albicans were picked and inoculated into 8 mL of LB liquid medium for overnight growth at 37 °C, respectively. Next day, the cultures were 100-fold diluted to 1x10^7 CFU/mL with fresh LB liquid medium, to grow at 37 °C until OD600 0.4~0.6. Compounds 1 and 2 were dissolved […] The disks were then placed onto an agar plate containing a soft agar overlay with the indicator microorganisms. […] MES, 5 mM DTT, pH 5.5) was detected by proteolysis of fluorescent substrate z-FR-AMC. […] The absorbance was measured by microplate reader (Spectra max GEMINI XPS, excitation wavelength 380 nm, emission wavelength 460 nm). […] The mixture was centrifuged at 12000 rpm for 20 minutes, and the supernatant was subsequently analyzed HPLC-DAD. […] The resulting samples were collected by capillary tubes and analyzed by Microscale Thermophoresis (Monolith NT.115). […]

Another data set concerns Staphylococcus aureus. Briefly: Antibacterial assay, agar diffusion method. In kind it is cell-based. Particulars: 50 μg/disc. As to the method: (§3) The white needle crystals of 2 were obtained from MeOH solvent by slowly volatilizing in a glass vial under ambient condition. The X-ray diffraction measurement of crystals basically followed our previously published method.1 The crystallographic data for 2 was summarized […]6, and deposited in CCDC database under the access number 2278050. Antibacterial Assay. The antibacterial assay was performed by agar diffusion method.2 Single colony of Gram-positive bacteria Staphylococcus aureus, Gram-negative bacterium Acinetobacter baumannii, and fungus Candida albicans were picked and inoculated into 8 mL of LB liquid medium for overnight growth at 37 °C, respectively. Next day, the cultures were 100-fold diluted to 1x10^7 CFU/mL with fresh LB liquid medium, to grow at 37 °C until OD600 0.4~0.6. Compounds 1 and 2 were dissolved […] The disks were then placed onto an agar plate containing a soft agar overlay with the indicator microorganisms. Kanamycin (for S. aureus) and apramycin (for C. albicans and E. coli) at a concentration of 1 mg/mL were used as positive controls, and the solvent methanol as the negative control. […] Protease inhibition assay. […] MES, 5 mM DTT, pH 5.5) was detected by proteolysis of fluorescent substrate z-FR-AMC. Enzyme was pre- incubated with a gradient concentration (0~500 μM) of compounds for 60 min at 37 °C in a black 96-well plate. Then, 20 μM of z-FR-AMC was added to each well to make up 200 μ[…] , and the reaction continued for another 30 min. The absorbance was measured by microplate reader (Spectra max GEMINI XPS, excitation wavelength 380 nm, emission wavelength 460 nm). The protease inhibitor E-64 was used as positive control and DMSO was the negative control. All the experiments were completed in triplicate. Enzymatic cleavage of 1 and 1b' using CorB. The reaction was conducted in a 50 μL system comprising of 20 mM Tris-HCl buffer (pH 7.5), 150 mM NaCl, 0.22 mM CorB, and 0.05 mg 1, or 1b' (dissolved in DMSO) respectively. Tris-HCl buffer was used as a negative control, and all experiments were repeated in triplicates. The reactions were incubated at 37 °C for 12 hours and then terminated by adding 50 μL of MeOH. The mixture was centrifuged at 12000 rpm for 20 minutes, and the supernatant was subsequently analyzed HPLC-DAD. MST assay. The purified CorB was mixed with an equal volume of RED-tris-NTA dye solution and incubated in the dark for 30 min, centrifuged at 12000 rpm, 4 °C for 10 min. Then, 10 μL of the CorB-dye complex was mixed with an equal volume of test compound solution ranging from 15.2 μM to 0.5 mM. The resulting samples were collected by capillary tubes and analyzed by Microscale Thermophoresis (Monolith NT.115). 4

A further data set deals with Acinetobacter baumannii. Nature of the data set: Antibacterial assay, agar diffusion method. Type of data set: cell-based. Particulars: 50 μg/disc. As to the method: as §3
In another data set the test system is Candida albicans. Nature of the data set: Agar diffusion assay against fungus. Particulars: 50 μg/disc. In kind it is cell-based. Here is the method:
as §2

In another data set the target is cathepsin L (Homo sapiens, UniProt P07711). Briefly: Protease inhibition assay (z-FR-AMC proteolysis). Type of data set: biochemical. Particulars: compounds 0~500 μM, pre-incubated 60 min at 37 °C, pH 5.5; read-out: inhibition activity against protease cathepsin L, IC50. Here is the method:
as §2

Chain of cathepsin L (P07711 114-333, species assumed): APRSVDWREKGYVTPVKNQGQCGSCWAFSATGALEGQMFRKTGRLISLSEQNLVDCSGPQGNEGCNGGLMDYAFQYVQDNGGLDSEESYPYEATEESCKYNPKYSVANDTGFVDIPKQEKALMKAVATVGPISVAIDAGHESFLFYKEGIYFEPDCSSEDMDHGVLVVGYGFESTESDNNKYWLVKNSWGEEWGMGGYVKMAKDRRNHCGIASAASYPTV

With `CC(=O)[C@@H](NC(=O)[C@H](CC(C)C)NC(=O)OC(C)(C)C)C(C)C` [1b′], in the data set with SDU70-ΔcorA-corB, the morphology on induction result is given as “maintained the dispersed morphology” and the clumping result is reported as “did not clump”. In addition, the clumping entry in the data set with SDU70-corB is recorded as “did not clump”. In the data set on SDU70-ΔcorA, the “dose dependence of flocculation/agglutination” value is listed as “dose-dependent manner” and the “ability to induce agglutination (SAR)” value is reported as “effective”. Further, in the data set with DK1622-wt [1], the “dose dependence of flocculation/agglutination” value was “dose-dependent manner” and the “ability to induce agglutination (SAR)” value is “effective”. In addition, in the data set on DK1622-corB, the “agglutination induced by exogenous addition, in corB-overexpressing strain” value was “substantially abated agglutination” and the “threshold concentration causing visible flocculation of DK1622-corB relative to DK1622-wt” value was 3–4 times.

Turning to `CC(=O)O[C@@]12CO[C@@H]1C[C@H](O)[C@@]1(C)C(=O)[C@H](O)C3=C(C)[C@@H](OC(=O)[C@H](O)[C@@H](NC(=O)OC(C)(C)C)c4ccccc4)C[C@@](O)([C@@H](OC(=O)c4ccccc4)[C@H]21)C3(C)C` [Docetaxel, reference compound], the IC50 in [2] was 10.3 µM; in [3] it was 33.1 µM; in data set [4], 71.9 µM; in data set [5], 17.8 µM.

Turning to `Cc1nc(CC(C)C)c(=O)[nH]c1C(C)C` [compound 1, coralinone A], the IC50 in data set [2] came out at 892 µM; in data set [3], 383 µM; in [4], 796 µM; in data set [5], 463 µM. In addition, the morphology on induction entry in the data set with SDU70-ΔcorA-corB is on record as “maintained the dispersed morphology”. The clumping result in the data set on SDU70-ΔcorA-corB and in the data set with SDU70-corB was “did not clump” in each case. The “flocculation at 5 mg/L in dose series” value in the data set on SDU70-ΔcorA (5 mg/L) and in the data set on DK1622-wt [1] (5 mg/L) was “severe flocculation” in each case. Moreover, the “restoration of pellet morphogenesis by chemical complementation” value with SDU70-ΔcorA (5 mg/L, shaken liquid culture) is reported as “restored”. The “dose dependence of flocculation/agglutination” value in the data set on SDU70-ΔcorA and with DK1622-wt [1] was “dose-dependent manner” in each case. For the same compound, the “concentration that started to be active in causing flocculation” value in the data set with SDU70-ΔcorA (dose series 1~50 mg/L) and in the data set on DK1622-wt [1] (dose series 1~50 mg/L) was 2 mg/L throughout. Further, the “ability to induce agglutination (SAR)” value in the data set with SDU70-ΔcorA and with DK1622-wt [1] was “effective” each time. The EPS production entry in the data set on DK1622-wt [6] is “cumulation of EPS”. The “EPS production (Alexa 350-WGA blue signal in Merge photos)” value with DK1622 is “higher production of EPS”. Moreover, the antiproliferative activities result in the data set on four human cell lines is given as “Neither 1 nor 2 showed any significant antiproliferative activities”. The “binding to CorB (MST)” value in the data set with CorB is recorded as “did not disturb CorB-dye binding”. The growth inhibition entry in the data set on Staphylococcus aureus, in the data set with Acinetobacter baumannii and in the data set with Candida albicans was “No growth inhibition” in each case. Besides, the “flocculation on exogenous supplementation” value in the data set with DK1622-wt [1] (5 mg/L, liquid culture) is recorded as “led to flocculation”. The “agglutination induced by exogenous addition, in corB-overexpressing strain” value with DK1622-corB was “substantially abated agglutination”. Moreover, in the data set on DK1622-corB, the “threshold concentration causing visible flocculation of DK1622-corB relative to DK1622-wt” value was 3–4 times.

With `CC[C@H](C)c1[nH]c(=O)c(CC(C)C)nc1C` [compound 2, coralinone B], the IC50 in data set [2] came out at 504 µM; in [3], 145 µM; in [4] it was 432 µM; in [5] it was 312 µM. Also, in the data set on four human cell lines, the antiproliferative activities entry is recorded as “Neither 1 nor 2 showed any significant antiproliferative activities”. Also, the growth inhibition result in the data set with Staphylococcus aureus, in the data set with Acinetobacter baumannii and in the data set with Candida albicans was “No growth inhibition” in each case.

On to `CC(C)C[C@H](NC(=O)OC(C)(C)C)C(=O)N[C@H](C=O)C(C)C` [10b′] (Boc-Leu-Val-aldehyde), for which the half-inhibitory concentration (IC50) on cathepsin L was found to be 0.23 µM.
